A short description of series [1]: AUC in human at 220 mg/m2 administered as DMSO/egg phospholipid formulation. The format is ADME, organism-based. As to conditions: plasma.
The nature of series [2]: Half life in human at 220 mg/m2 administered as DMSO/egg phospholipid formulation. To be noted: in vivo. The format is ADME, organism-based.
Series [3] can be described thus: Apparent volume of distribution in tumor of mouse bearing human A2780 cells at 80 mg/kg, ip administered as DMSO/egg phospholipid formulation. The format is ADME, organism-based, Neoplasm. Details: dose 80 mg/kg, route intraperitoneal. To be noted: in vivo.
The nature of series [4]: Half life in plasma of mouse bearing human A2780 cells at 80 mg/kg, ip administered as DMSO/egg phospholipid formulation. The format is ADME, organism-based. Details: dose 80 mg/kg, route intraperitoneal.
A short description of series [5]: Cmax in liver of mouse bearing human A2780 cells at 80 mg/kg, ip administered as DMSO/egg phospholipid formulation. The format is ADME, organism-based. Details: dose 80 mg/kg, route intraperitoneal.
The nature of series [6]: Cmax in human at 220 mg/m2 administered as DMSO/egg phospholipid formulation. The format is ADME, organism-based. To be noted: in vivo.
Series [7] concerns the target T1, Heat shock protein HSP 90-beta (Homo sapiens, UniProt P08238).
Description: Binding affinity to HSP90 under reducing conditions in presence of TECP
Series [8] deals with T1, Heat shock protein HSP 90-beta. The source holds these as a separate data set.
Description: Inhibition of HSP90-mediated client protein HER2 degradation
A short description of series [9]: Cmax in plasma of mouse bearing human A2780 cells at 80 mg/kg, ip administered as DMSO/egg phospholipid formulation. The format is ADME, organism-based. Details: dose 80 mg/kg, route intraperitoneal.
The nature of series [10]: Half life in liver of mouse bearing human A2780 cells at 80 mg/kg, ip administered as DMSO/egg phospholipid formulation. The format is ADME, organism-based. Details: dose 80 mg/kg, route intraperitoneal.
The test system of series [11] is Liver. The series is described as follows: Apparent volume of distribution in liver of mouse bearing human A2780 cells at 80 mg/kg, ip administered as DMSO/egg phospholipid formulation. The format is ADME, organism-based. Details: dose 80 mg/kg, route intraperitoneal. As to conditions: in vivo.
The nature of series [12]: AUC in liver of mouse bearing human A2780 cells at 80 mg/kg, ip administered as DMSO/egg phospholipid formulation. The format is ADME, organism-based. Details: dose 80 mg/kg, route intraperitoneal.
Series [13] in a line: Tmax in human at 220 mg/m2 administered as DMSO/egg phospholipid formulation. The format is ADME, organism-based. To be noted: in vivo.
Series [14] in a line: AUC in tumor of mouse bearing human A2780 cells at 80 mg/kg, ip administered as DMSO/egg phospholipid formulation. Type of series: ADME, organism-based, Neoplasm. Details: dose 80 mg/kg, route intraperitoneal.
Series [15] can be described thus: Half life in tumor of mouse bearing human A2780 cells at 80 mg/kg, ip administered as DMSO/egg phospholipid formulation. Details: dose 80 mg/kg, route intraperitoneal. The format is ADME, organism-based, Neoplasm.
Series [16] can be described thus: AUC in plasma of mouse bearing human A2780 cells at 80 mg/kg, ip administered as DMSO/egg phospholipid formulation. Details: dose 80 mg/kg, route intraperitoneal. Type of series: ADME, organism-based.
Series [17] is described as follows: Clearance in tumor of mouse bearing human A2780 cells at 80 mg/kg, ip administered as DMSO/egg phospholipid formulation. The format is ADME, organism-based, Neoplasm. Details: dose 80 mg/kg, route intraperitoneal. To be noted: in vivo.
In series [18] the test system is Plasma. The series is described as follows: Apparent volume of distribution in plasma of mouse bearing human A2780 cells at 80 mg/kg, ip administered as DMSO/egg phospholipid formulation. The format is ADME, organism-based. Details: dose 80 mg/kg, route intraperitoneal. As to conditions: in vivo.
The nature of series [19]: Cmax in tumor of mouse bearing human A2780 cells at 80 mg/kg, ip administered as DMSO/egg phospholipid formulation. The format is ADME, organism-based, Neoplasm. Details: dose 80 mg/kg, route intraperitoneal. To be noted: read-out: Cmax_tumor.
Series [20] in a line: Clearance in plasma of mouse bearing human A2780 cells at 80 mg/kg, ip administered as DMSO/egg phospholipid formulation. The format is ADME, organism-based. Details: dose 80 mg/kg, route intraperitoneal.
The target of series [21] is T1, Heat shock protein HSP 90-beta. This is another data set of the same source.
Description: Inhibition of HSP90-mediated client protein HER2 degradation in human MCF7 cells
The nature of series [22]: Volume of distribution at steady state in human at 220 mg/m2 administered as DMSO/egg phospholipid formulation. The format is ADME, organism-based. As to conditions: in vivo, read-out: Vdss.
Series [23] addresses T1, Heat shock protein HSP 90-beta. This is another data set of the same source.
Description: Binding affinity to HSP90 under non-reducing conditions in absence of TECP
For series [24], the system named is Liver. The series is described as follows: Clearance in liver of mouse bearing human A2780 cells at 80 mg/kg, ip administered as DMSO/egg phospholipid formulation. Type of series: ADME, organism-based. Details: dose 80 mg/kg, route intraperitoneal. To be noted: in vivo.
Series [25] in a line: Tmax in mouse at 100 mg/kg, po. The format is ADME, organism-based. Details: dose 100 mg/kg, route oral. As to conditions: in vivo.
Series [26] deals with SK-OV-3. The series is described as follows: animal or person. As to conditions: Mus musculus, SK-OV-3, po, read-out: TGI.
Description: Antitumor activity against human SKOV3 cells xenografted in BALB/c mouse at 124 mg/kg, po administered in QDx5 schedule
A short description of series [27]: Cmax in mouse at 100 mg/kg, po. Type of series: ADME, organism-based. Details: dose 100 mg/kg, route oral. As to conditions: in vivo.
Series [28] can be described thus: animal or person. To be noted: Homo sapiens, U-87 MG, po, read-out: TGI.
Description: Antitumor activity against human U87 cells xenografted in BALB/c mouse at 75 mg/kg, po administered in BIDx5 schedule
Series [29] can be described thus: animal or person. As to conditions: Homo sapiens, CWR22, po, read-out: TGI.
Description: Antitumor activity against human CWR22 cells xenografted in BALB/c mouse at 120 mg/kg, po administered in QDx5 schedule
The subject of series [30] is Mus musculus. The series is described as follows: Toxicity in BALB/c mouse assessed as body weight loss at 125 mg/kg, po administered in QDx5 schedule. Type of series: organism-based. Details: dose 125 mg/kg, route oral. To be noted: in vivo.
Series [31] concerns BT-474. The series is described as follows: animal or person. To be noted: Mus musculus, BT-474, po, read-out: TGI.
Description: Antitumor activity against human BT474 cells xenografted in BALB/c mouse at 120 mg/kg, po administered in QDx5 schedule
Series [32] deals with NCI-N87. The series is described as follows: animal or person. As to conditions: Mus musculus, NCI-N87, po, read-out: TGI.
Description: Antitumor activity against human NCI-N87 cells xenografted in BALB/c mouse at 125 mg/kg, po administered in QDx5 schedule
A short description of series [33]: AUC in mouse at 100 mg/kg, po. Type of series: ADME, organism-based. Details: dose 100 mg/kg, route oral. As to conditions: plasma.
The subject of series [34] is PANC-1. The series is described as follows: animal or person. To be noted: Mus musculus, PANC-1, po, read-out: TGI.
Description: Antitumor activity against human PANC1 cells xenografted in BALB/c mouse at 124 mg/kg, po administered in QDx5 schedule
A short description of series [35]: Half life in mouse at 100 mg/kg, po. To be noted: in vivo. The format is ADME, organism-based. Details: dose 100 mg/kg, route oral.

The values below come from ChEMBL document CHEMBL1154885, “Heat shock protein 90: inhibitors in clinical trials” (J Med Chem, 2010).

T1 sequence (P08238 whole entry): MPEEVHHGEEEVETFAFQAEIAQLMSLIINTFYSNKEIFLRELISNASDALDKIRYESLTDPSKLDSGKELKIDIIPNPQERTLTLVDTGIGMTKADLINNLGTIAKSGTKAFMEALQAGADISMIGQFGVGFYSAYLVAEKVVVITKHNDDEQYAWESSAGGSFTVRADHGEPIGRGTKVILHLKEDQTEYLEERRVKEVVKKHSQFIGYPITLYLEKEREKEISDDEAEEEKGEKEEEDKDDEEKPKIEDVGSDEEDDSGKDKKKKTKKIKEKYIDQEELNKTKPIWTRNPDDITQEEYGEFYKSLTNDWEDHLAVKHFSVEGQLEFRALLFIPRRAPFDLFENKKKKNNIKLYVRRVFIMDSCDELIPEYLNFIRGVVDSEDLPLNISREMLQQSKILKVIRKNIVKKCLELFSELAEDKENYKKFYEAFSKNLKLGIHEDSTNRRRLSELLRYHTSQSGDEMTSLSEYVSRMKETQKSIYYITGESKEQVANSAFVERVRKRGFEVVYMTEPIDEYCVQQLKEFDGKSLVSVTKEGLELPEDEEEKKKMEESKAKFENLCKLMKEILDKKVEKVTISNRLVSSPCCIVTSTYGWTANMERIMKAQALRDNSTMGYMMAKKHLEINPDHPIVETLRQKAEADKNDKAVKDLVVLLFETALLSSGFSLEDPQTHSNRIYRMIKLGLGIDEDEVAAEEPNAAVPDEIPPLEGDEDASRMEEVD

By AUC is commonly meant the area under the concentration-time curve, a measure of exposure. A lower AUC goes with low exposure. Usually half-life stands for the time in which the quantity being followed falls by half. As usually defined, the Ki is a measure of affinity in units of concentration, obtained from inhibition or displacement. Lower therefore signals higher affinity. For orientation: IC50 means the concentration that gives 50% inhibition. One may read the Tmax as the time at which the peak concentration occurs. What is called CL/F is the apparent clearance, not corrected for the fraction that reaches the circulation. For the compound `CO[C@H]1/C=C\C=C(/C)C(=O)NC2=CC(=O)C(N)=C(C[C@@H](C)C[C@H](OC)[C@H](O)[C@@H](C)/C=C(\C)[C@@H]1OC(N)=O)C2=O`, the AUC worked out at 21 µM·h in [1], 59 µM·h in [12], 43 µM·h in [14] and 15 µM·h in [16]. The half-life in series [2] was 6.9 h; in series [4] it was 1.2 h; in [10] it was 1.8 h; in series [15], 13.7 h. Besides, the Vz in [3] stood at 0.49 L; in series [11] it was 0.06 L; in [18], 0.18 L. Besides, the Cmax came to 18 µM in series [5], 3 µM in [6], 4.8 µM in [9] and 3.5 µM in series [19]. Also, the values for the Ki in series [7] and in series [23] were 3 nM and 21 nM, respectively. In addition, the concentration for half-maximal inhibition (IC50) in series [8] turned out to be 7 nM; in series [21], 12 nM. The time to peak (Tmax) in series [13] was 1.7 h. Moreover, the CL in series [17] was found to be 0.03 L/h; in series [24], 0.02 L/h. In addition, the CL/F in [20] was 1.83 mL/min. In addition, the Vd in series [22] turned out to be 230 L.
On to `COc1c(C)cnc(Cn2cnc3c(Cl)nc(N)nc32)c1C` [BIIB021], for which the Tmax in series [25] came out at 6 min. Moreover, the inhibition in vivo at 124 mg/kg in series [26] turned out to be 67%; in series [34], 51%. In addition, the Cmax in series [27] was 31 µM. In addition, the inhibition in vivo at 75 mg/kg in series [28] worked out at 70%. Besides, the inhibition in vivo at 120 mg/kg was determined as 85% in [29] and 94% in series [31]. In addition, the Activity in series [30] was 3%. Further, the inhibition in vivo at 125 mg/kg in [32] turned out to be 87%. This compound also returned an AUC in series [33] of 15 µM·h. For the same compound, in [35], the half-life is 0.8 h.
